pKi: −log10 of the molar value. Square brackets hold non-standard residues; d marks the D form. Peptide text beside a SMILES is read from it. * marks the point of attachment. Phe(4-guanidino) = N=C(N)Nc1ccc(C[C@H](N)C(=O)O)cc1; Bip = N[C@@H](Cc1ccc(-c2ccccc2)cc1)C(=O)O; Phe(4-CN) = N#Cc1ccc(C[C@H](N)C(=O)O)cc1; Phe(4-Cl) = N[C@@H](Cc1ccc(Cl)cc1)C(=O)O; Phe(4-Me) = Cc1ccc(C[C@H](N)C(=O)O)cc1; NMeR = CN[C@@H](CCCNC(=N)N)C(=O)O; hPhe = N[C@@H](CCc1ccccc1)C(=O)O; NMeK = CN[C@@H](CCCCN)C(=O)O; NMeNle = CCCC[C@H](NC)C(=O)O; Phg = N[C@H](C(=O)O)c1ccccc1; dNle = CCCC[C@@H](N)C(=O)O; Nle = CCCC[C@H](N)C(=O)O; Bz = O=C(c1ccccc1)*

The target in this assay is Genome polyprotein (dengue virus type 2, UniProt P29990). Nature of the assay: Inhibitory activity against dengue 2 NS3 protease fused via a linker to region of NS2B.
Sequence of Genome polyprotein (P29990 1346-1475 limits assumed): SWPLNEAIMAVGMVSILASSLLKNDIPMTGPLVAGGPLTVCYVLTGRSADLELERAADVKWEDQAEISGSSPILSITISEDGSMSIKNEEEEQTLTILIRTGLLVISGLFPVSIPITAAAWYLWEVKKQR
Sequence of Genome polyprotein (P29990 1476-2093 limits assumed): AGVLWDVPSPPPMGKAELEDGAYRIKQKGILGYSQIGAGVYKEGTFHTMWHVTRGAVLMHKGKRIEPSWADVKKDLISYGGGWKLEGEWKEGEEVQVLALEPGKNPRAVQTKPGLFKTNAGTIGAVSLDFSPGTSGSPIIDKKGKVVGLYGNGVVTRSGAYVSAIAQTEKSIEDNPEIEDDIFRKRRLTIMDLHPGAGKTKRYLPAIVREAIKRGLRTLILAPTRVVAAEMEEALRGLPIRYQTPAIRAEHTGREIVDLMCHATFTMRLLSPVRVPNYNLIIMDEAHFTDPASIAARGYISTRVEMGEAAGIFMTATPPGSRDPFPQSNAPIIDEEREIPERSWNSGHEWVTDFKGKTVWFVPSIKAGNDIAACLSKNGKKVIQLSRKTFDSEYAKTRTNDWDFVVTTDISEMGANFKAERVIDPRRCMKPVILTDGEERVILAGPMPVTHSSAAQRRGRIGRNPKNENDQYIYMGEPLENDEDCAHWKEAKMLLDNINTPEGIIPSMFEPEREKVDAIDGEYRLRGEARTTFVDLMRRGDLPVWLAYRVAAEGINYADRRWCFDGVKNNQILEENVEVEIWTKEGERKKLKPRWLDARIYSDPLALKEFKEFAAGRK
With `C[C@H](NC(=O)c1ccccc1)C(=O)N[C@@H](CCCCN)C(=O)N[C@@H](CCCN=C(N)N)C(=O)N[C@H](C=O)CCCN=C(N)N` (Bz-AKRR-aldehyde), the pKi was 5.28.

In turn, `NC(N)=NCCC[C@@H](C=O)NC(=O)[C@H](CCCN=C(N)N)NC(=O)c1ccccc1` (Bz-Arg-Arg-aldehyde) had a pKi of 4.92.

The compound `NCCCC[C@H](NC(=O)[C@H](Cc1ccccc1)NC(=O)c1ccccc1)C(=O)N[C@@H](CCCN=C(N)N)C(=O)N[C@H](C=O)CCCN=C(N)N` (Bz-FKRR-aldehyde) had a negative-log Ki (pKi) of 5.17.

The compound `NCCCC[C@H](NC(=O)c1ccccc1)C(=O)N[C@@H](CCCN=C(N)N)C(=O)N[C@H](C=O)CCCN=C(N)N` (Bz-Lys-Arg-Arg-aldehyde) showed a pKi of 5.82.

As to `CCCC[C@@H](C(=O)N[C@@H](CCCCN)C(=O)N[C@@H](CCCN=C(N)N)C(=O)N[C@H](C=O)CCCN=C(N)N)N(C)C(=O)c1ccccc1` (Bz-[NMeNle]KRR-aldehyde), the pKi is 4.36.

With `CCCC[C@H](NC(=O)c1ccccc1)C(=O)N[C@@H](C)C(=O)N[C@@H](CCCN=C(N)N)C(=O)N[C@H](C=O)CCCN=C(N)N` (Bz-[Nle]ARR-aldehyde), the pKi was 4.66. This pKi lies 0.30 log units higher than the previous one.

In the case of `CCCC[C@H](NC(=O)c1ccccc1)C(=O)N[C@@H](Cc1ccccc1)C(=O)N[C@@H](CCCN=C(N)N)C(=O)N[C@H](C=O)CCCN=C(N)N` (Bz-[Nle]FRR-aldehyde), the pKi is 4.80. This pKi and that of the compound before are within 0.2 log units of each other.

On to `CCCC[C@H](NC(=O)c1ccccc1)C(=O)N[C@@H](CCCCN)C(=O)N[C@@H](C)C(=O)N[C@H](C=O)CCCN=C(N)N` (Bz-[Nle]KAR-aldehyde), for which the pKi is less than 3.30.

Take `CCCC[C@H](NC(=O)c1ccccc1)C(=O)N[C@@H](CCCCN)C(=O)N[C@@H](Cc1ccccc1)C(=O)N[C@H](C=O)CCCNC(=N)N` (Bz-[Nle]KFR-aldehyde): the negative logarithm of the Ki (pKi) was 4.39.

In the case of `CCCC[C@H](NC(=O)c1ccccc1)C(=O)N[C@@H](CCCCN)C(=O)N[C@@H](CCCCN)C(=O)N[C@H](C=O)CCCNC(=N)N` (Bz-[Nle]KKR-aldehyde), the pKi was 4.38.

Compound `CCCC[C@H](NC(=O)c1ccccc1)C(=O)N[C@@H](CCCCN)C(=O)N1CCC[C@H]1C(=O)N[C@H](C=O)CCCN=C(N)N` (Bz-[Nle]KPR-aldehyde) showed a pKi of 3.96. Compared with the last compound, the pKi is 0.42 log units lower.

For the compound `CCCC[C@H](NC(=O)c1ccccc1)C(=O)N[C@@H](CCCCN)C(=O)N[C@@H](CCCN=C(N)N)C(=O)N[C@@H](C)C=O` (Bz-[Nle]KRA-aldehyde), the pKi was 3.71.

`CCCC[C@H](NC(=O)c1ccccc1)C(=O)N[C@@H](CCCCN)C(=O)N[C@@H](CCCN=C(N)N)C(=O)N[C@H](C=O)Cc1ccccc1` (Bz-[Nle]KRF-aldehyde) gave a pKi of 4.80.

`CCCC[C@H](NC(=O)c1ccccc1)C(=O)N[C@@H](CCCCN)C(=O)N[C@@H](CCCN=C(N)N)C(=O)N[C@H](C=O)CCCCN` (Bz-[Nle]KRK-aldehyde) had a pKi of 4.69.

Regarding `CCCC[C@H](NC(=O)c1ccccc1)C(=O)N[C@@H](CCCCN)C(=O)N[C@@H](CCCNC(=N)N)C(=O)N[C@H](C=O)CCCNC(=N)N` (Bz-[Nle]KRR-aldehyde), the pKi was 5.24.

`CCCC[C@H](NC(=O)c1ccccc1)C(=O)N[C@@H](CCCCN)C(=O)N[C@@H](CCCN=C(N)N)C(=O)N[C@H](C=O)Cc1c[nH]c2ccccc12` (Bz-[Nle]KRW-aldehyde) showed a negative logarithm of the Ki (pKi) of 5.12. This pKi and that of the compound before are within 0.2 log units of each other.

On to `CCCC[C@H](NC(=O)c1ccccc1)C(=O)N[C@@H](CCCCN)C(=O)N[C@@H](CCCN=C(N)N)C(=O)N[C@H](C=O)Cc1ccc(-c2ccccc2)cc1` (Bz-[Nle]KR[Bip]-aldehyde), for which the pKi was 4.94.

Compound `CCCC[C@H](NC(=O)c1ccccc1)C(=O)N[C@@H](CCCCN)C(=O)N[C@@H](CCCN=C(N)N)C(=O)N[C@H](C=O)Cc1ccc(C#N)cc1` (Bz-[Nle]KR[Phe(4-CN)]-aldehyde) had a pKi of 4.73.

On to `CCCC[C@H](NC(=O)c1ccccc1)C(=O)N[C@@H](CCCCN)C(=O)N[C@@H](CCCN=C(N)N)C(=O)N[C@H](C=O)Cc1ccc(Cl)cc1` (Bz-[Nle]KR[Phe(4-Cl)]-aldehyde), for which the pKi is 3.86. Compared with the last compound, the pKi is 0.87 log units lower.

For the compound `CCCC[C@H](NC(=O)c1ccccc1)C(=O)N[C@@H](CCCCN)C(=O)N[C@@H](CCCN=C(N)N)C(=O)N[C@H](C=O)Cc1ccc(C)cc1` (Bz-[Nle]KR[Phe(4-Me)]-aldehyde), the pKi is 5.22.

`CCCC[C@H](NC(=O)c1ccccc1)C(=O)N[C@@H](CCCCN)C(=O)N[C@@H](CCCNC(=N)N)C(=O)N[C@H](C=O)Cc1ccc(NC(=N)N)cc1` (Bz-[Nle]KR[Phe(4-guanidino)]-aldehyde) showed a negative logarithm of the Ki (pKi) of 5.55. This pKi is 0.33 log units higher than that of the compound before.

`CCCC[C@H](NC(=O)c1ccccc1)C(=O)N[C@@H](CCCCN)C(=O)N[C@@H](CCCN=C(N)N)C(=O)N[C@H](C=O)c1ccccc1` (Bz-[Nle]KR[Phg]-aldehyde) had a pKi of 4.48.

Regarding `CCCC[C@H](NC(=O)c1ccccc1)C(=O)N[C@@H](CCCCN)C(=O)N[C@@H](CCCN=C(N)N)C(=O)N[C@@H](C=O)CCCN=C(N)N` (Bz-[Nle]KR[dR]-aldehyde), the pKi was 4.29.

In the case of `CCCC[C@H](NC(=O)c1ccccc1)C(=O)N[C@@H](CCCCN)C(=O)N[C@@H](CCCN=C(N)N)C(=O)N[C@H](C=O)CCc1ccccc1` (Bz-[Nle]KR[hPhe]-aldehyde), the pKi was less than 3.30.

The compound `CCCC[C@H](NC(=O)c1ccccc1)C(=O)N[C@@H](CCCCN)C(=O)N(C)[C@@H](CCCN=C(N)N)C(=O)N[C@H](C=O)CCCN=C(N)N` (Bz-[Nle]K[NMeR]R-aldehyde) gave a negative logarithm of the Ki (pKi) of 4.32.

Consider `CCCC[C@H](NC(=O)c1ccccc1)C(=O)N[C@@H](CCCCN)C(=O)N[C@H](CCCN=C(N)N)C(=O)N[C@H](C=O)CCCN=C(N)N` (Bz-[Nle]K[dR]R-aldehyde), for which the pKi was 3.94. Against the preceding compound, the pKi is 0.38 log units lower.

`CCCC[C@H](NC(=O)c1ccccc1)C(=O)N1CCC[C@H]1C(=O)N[C@@H](CCCN=C(N)N)C(=O)N[C@H](C=O)CCCN=C(N)N` (Bz-[Nle]PRR-aldehyde) showed a pKi of 4.21.

`CCCC[C@H](NC(=O)c1ccccc1)C(=O)N(C)[C@@H](CCCCN)C(=O)N[C@@H](CCCN=C(N)N)C(=O)N[C@H](C=O)CCCN=C(N)N` (Bz-[Nle][NMeK]RR-aldehyde) showed a pKi of 3.95.

Take `CCCC[C@H](NC(=O)c1ccccc1)C(=O)N[C@H](CCCCN)C(=O)N[C@@H](CCCN=C(N)N)C(=O)N[C@H](C=O)CCCN=C(N)N` (Bz-[Nle][dK]RR-aldehyde): the pKi was 4.54.

`CCCC[C@@H](NC(=O)c1ccccc1)C(=O)N[C@@H](CCCCN)C(=O)N[C@@H](CCCN=C(N)N)C(=O)N[C@H](C=O)CCCN=C(N)N` (Bz-[dNle]KRR-aldehyde) had a negative logarithm of the Ki (pKi) of 5.03. Against the preceding compound, the pKi is 0.49 log units higher.
